Our source for the melting point values is a melting point compilation (Tetko et al.).

As to `O=C(Cc1ccc(Br)cc1)Nc1ccsc1C(=O)O`, the melting point lay within 226 to 228 °C. In the case of `CC(C)n1ccc(C(=O)O)n1`, the melting point lay in the range of 77 to 79 °C. `Nc1nnns1` displayed a melting point of 120 to 122 °C. `CC(Nc1ccc(Cl)cc1Cl)C(=O)O` (stereo unspecified) had a melting point of 146 to 148 °C. As for `NC(=S)c1ccc(NC(=O)c2ccco2)cc1`, the melting point was in the range of 258 to 260 °C. The compound `NNc1cncc(Cl)n1` yielded a melting point of 137 to 139 °C. In turn, `Cc1ccc(C)c(-n2c(=O)c(N)c(C)n2C)c1` gave a melting point of 19 to 20 °C.

As for `ClCc1ccc(I)cc1`, the melting point is 49 to 51 °C. `O=C1C=CC(=O)N1c1cccc([N+](=O)[O-])c1`: the melting point lay within 129 to 131 °C. Next, `O=S(=O)(Cl)c1ccc2nc(Cl)c(Cl)nc2c1`: 88 to 90 °C.

Consider `Nc1cc(-c2cccs2)nn1CCO`, for which the melting point lay within 155 to 157 °C. For the compound `CS(=O)(=O)N1CCN(C(=O)c2ccc(O)cc2)CC1`, the melting point lay in the range of 211 to 213 °C. Next, `Cc1cc(C)n(-c2ccc(Cl)c(C(=O)O)n2)n1`: 184 to 186 °C; `CCCS(=O)(=O)Nc1cccc(O)c1`: 101 to 103 °C; `O=C1NCCc2ccc([N+](=O)[O-])cc21`: 228 to 230 °C.

`N#CCC(=O)NCCN1CCOCC1` returned a melting point of 68 to 75 °C. With `CN(CC(=O)O)C(=O)Nc1cccc([N+](=O)[O-])c1`, the melting point fell in the range of 157 to 159 °C. Next, `Nc1ccc(S(=O)(=O)Nc2ccc(F)c(Cl)c2)cc1`: 173 to 175 °C. In turn, `O=S(=O)(c1ccc(CCl)o1)N1CCCC1` returned a melting point of 81 to 83 °C. Turning to `COc1ccc(C=O)cc1SC`, the melting point was 44 to 46 °C. Next, `CS(=O)c1ccccc1C(=O)O` (stereo unspecified): 130 to 135 °C; `O=c1c2ccccc2nc(S)n1-c1ccc(Cl)cc1`: 336 to 338 °C; `C=CCn1c(S)nc2cc(Cl)ccc2c1=O`: 139 to 141 °C. Take `Clc1ccnc2cc(Br)cnc12`: the melting point fell in the range of 182 to 184 °C.

Compound `Cc1ccc(NC(=O)OC(C)(C)C)s1` came in with a melting point of 103 to 105 °C. `COc1ccc(C(=O)C(C)Br)cc1OC` (stereo unspecified) gave a melting point of 83 to 85 °C.

`OC(CN1CCCC1)C(F)(F)F` (stereo unspecified) registered a melting point of 78 to 80 °C.

`OCc1c(Cl)nc2ccccn12` had a melting point of 177 to 179 °C. For the compound `CS(=O)(=O)c1ccc(F)c(S(C)(=O)=O)c1`, the melting point lay within 196 to 198 °C. With `O=C1CSC(NC2CCCC2)=N1` the figure was 110 to 112 °C; with `Cc1noc(C)c1S(=O)(=O)N1CCCC1C(=O)O` (stereo unspecified), 133 to 137 °C.

For the compound `CCCc1noc2nc(C3CC3)cc(C(=O)O)c12`, the melting point fell in the range of 142 to 144 °C.

Compound `Cc1ccc(CC(=O)O)cn1` returned a melting point of 159 to 161 °C. In the case of `CC(=O)NC(CC(=O)O)c1ccccc1` (stereo unspecified), the melting point was in the range of 165 to 167 °C. With `C=Cc1nc(-c2ccc(Cl)cc2)no1` the figure was 62 to 64 °C.

As to `NNC(=O)CN1CCCc2ccccc21`, the melting point lay within 107 to 109 °C. As for `CN(C)S(=O)(=O)CCC(=O)O`, the melting point was in the range of 121 to 123 °C. With `CCn1cnnc1-c1cccc(N)c1` the figure was 179 to 181 °C; with `Cc1n[nH]c(=O)c(C(=O)O)c1C`, 179 to 181 °C. `O=C(O)C1CCCCN1C1=NS(=O)(=O)c2ccccc21` (stereo unspecified): the melting point was in the range of 185 to 187 °C.

As for `CCOC(=O)c1cnn(CCC#N)c1`, the melting point was in the range of 87 to 89 °C. Take `O=C1Nc2ccc(Br)cc2C12CCCC2`: the melting point is 201 to 203 °C. `Fc1ccc(-c2csc3ncnc(Cl)c23)cc1`: the melting point was in the range of 139 to 141 °C. For the compound `Oc1ccc(Sc2ccnc3cc(Cl)ccc23)cc1`, the melting point was in the range of 231 to 233 °C.

Turning to `Cc1ccc(SCCC(=O)O)cc1`, the melting point was in the range of 71 to 73 °C. Take `COc1ccc(-c2nnc(N)s2)cc1`: the melting point was in the range of 185 to 187 °C. With `O=S(=O)(Nc1nc2ccccc2nc1Cl)c1ccccc1C(F)(F)F` the figure was 157 to 159 °C; with `CC(C)c1ccc2c(c1)C(=O)C(=O)N2`, 93 to 95 °C; with `NC(=NO)c1cccc(NC(=O)CN2CCOCC2)c1`, 99 to 101 °C. Turning to `CS(=O)(=O)c1ccc(OCCCBr)cc1`, the melting point was in the range of 93 to 95 °C. For `O=C(O)/C=C/c1nccs1`, the melting point was 182 to 184 °C. Consider `COc1cc(OC)c(S(N)(=O)=O)cc1Br`, for which the melting point was 257 to 259 °C. Next, `CC(C)(C)CC(O)C(=O)O` (stereo unspecified): 71 to 73 °C; `Nc1cc(-c2ccc(Cl)cc2)nn1-c1ccccc1`: 191 to 193 °C; `CC(C)c1nn(C)c2sc(C(=O)O)cc12`: 209 to 211 °C. `COc1ncc(C(=O)O)cn1` returned a melting point of 219 to 221 °C.

The compound `O=C(O)C=Cc1ccccc1OC(F)(F)F` gave a melting point of 174 to 176 °C. As to `Oc1ccc(OC2CCCC2)cc1`, the melting point was 50 to 52 °C. `CC(C)(C)OC(=O)NCCOc1ccc(N)cc1` showed a melting point of 73 to 75 °C.

On to `CC(C)c1ccc(-n2ccnc2S)cc1`, for which the melting point was 131 to 135 °C. `Cc1cc(C)n(Cc2cccc(C(=O)O)c2)n1` registered a melting point of 220 to 222 °C. With `CC(C)N1C(=O)C(=O)c2ccccc21` the figure was 77 to 79 °C; with `O=C1NC(=O)C2(CCC(c3ccccc3)CC2)N1` (stereo unspecified), 250 to 252 °C; with `CC1CCNc2ccccc2N1` (stereo unspecified), 96 to 98 °C.

`Nc1nc2cc(Br)ccc2o1`: the melting point lay in the range of 172 to 174 °C. With `Cc1ccc(NC(=O)OCC(F)(F)F)cc1` the figure was 89 to 93 °C; with `CC(=O)C(Cc1ccccc1)NC(=O)CCl` (stereo unspecified), 73 to 75 °C; with `NNC(=O)c1cc(N)cc([N+](=O)[O-])c1`, 227 to 229 °C.

With `Cc1nc(-c2ccc(I)cc2)n[nH]1`, the melting point was in the range of 197 to 199 °C. `CC(C)(C)c1cc(N)c(C#N)s1`: the melting point was in the range of 99 to 101 °C.

`Cc1ccc(SCCC(=O)O)cc1C` had a melting point of 35 to 37 °C. `Cc1c(C(=O)O)sc2ccsc12` returned a melting point of 235 to 237 °C. `CN(C)S(=O)(=O)c1ccc(NC(=O)CCCl)cc1` came in with a melting point of 159 to 161 °C.

As to `COc1cc(C(=O)O)ccc1OCC(=O)NC(C)C`, the melting point lay within 193 to 195 °C. For the compound `Cc1oncc1C(=O)NCC(=O)O`, the melting point was in the range of 144 to 146 °C.

With `Cc1ccccc1-n1c(C)cc(C(=O)O)c1C`, the melting point was 127 to 129 °C. `CCCc1nc(C(=O)O)nn1-c1ccccc1Cl` showed a melting point of 142 to 144 °C. With `CS(=O)(=O)c1ccc(OCCC(=O)O)cc1` the figure was 108 to 110 °C; with `O=C(O)C(c1ccccc1)N1CCCCC1=O` (stereo unspecified), 148 to 150 °C; with `CCOC(=O)CC(O)c1ccc(OCc2ccccc2)cc1` (stereo unspecified), 61 to 63 °C. Compound `Nc1ccnc(Oc2ccccc2Cl)c1` came in with a melting point of 121 to 123 °C. `CCOc1ccc(S(=O)(=O)N(C)c2ccc(OCC(=O)O)cc2)cc1` showed a melting point of 82 to 84 °C. Take `NS(=O)(=O)c1ccc(OCCBr)cc1`: the melting point lay in the range of 111 to 113 °C. Turning to `Nc1ccc(C(=O)NCCN2CCOCC2)cc1`, the melting point lay in the range of 157 to 159 °C.

As for `N#Cc1cc2c([nH]c1=O)CCN(Cc1ccccc1)C2`, the melting point was 218 to 220 °C. The compound `CC(Cc1cccc(F)c1)(C(=O)O)C(=O)O` displayed a melting point of 150 to 152 °C.
